Columns and labels:
[1] = for Normal melting temperature: Crystal, AC calorimetry; for viscosity / mass density: 101.33 kPa, Liquid; for mass density: Vibrating tube method
[2] = refractive index (Na D-line) (dimensionless); details: 101.33 kPa, Liquid, Standard Abbe refractometry

CC(=O)OCC[N+](C)(C)C [2-acetoxy-N,N,N-trimethylethanaminium]
Details	Normal melting temperature [°C]
[1]	72.0

CCCCCC(=O)[O-].C[N+](C)(C)CCO [2-hydroxy-N,N,N-trimethylethanaminium hexanoate]
Details	mass density, [1] [kg/m3]	refractive index, [2]	viscosity, [1] [mPa·s]
293.15 K	1018.8	1.4726	929.2
298.15 K	1015.7	1.4709	710.7
303.15 K	1012.5	1.4692	530.4
308.15 K	1009.8	1.4675	400.3
313.15 K	1006.8	1.4658	298
318.15 K	1003.9	1.464	225.9
323.15 K	1001.3	1.4624	175.3
328.15 K	998.4	1.4607	140.3
333.15 K	995.5	1.459	110.9
338.15 K	992.6	–	89.7
343.15 K	989.7	–	73.7
348.15 K	986.8	–	60.9
353.15 K	984	–	51

CCCC(=O)[O-].C[N+](C)(C)CCO [choline butanoate]
Details	mass density, [1] [kg/m3]	refractive index, [2]	viscosity, [1] [mPa·s]
293.15 K	1049.5	1.4716	833.1
298.15 K	1046.5	1.47	630.6
303.15 K	1043.4	1.4683	459.3
308.15 K	1040.5	1.4667	344.2
313.15 K	1037.6	1.465	254
318.15 K	1034.6	1.4633	193.8
323.15 K	1031.9	1.4617	150.2
328.15 K	1029	1.46	118.2
333.15 K	1026.2	1.4585	94.3
338.15 K	1023.4	–	76.1
343.15 K	1020.5	–	62.2
348.15 K	1017.2	–	51.4
353.15 K	1014.5	–	42.9

CC(C)(C)C(=O)[O-].C[N+](C)(C)CCO [choline pivalate]
Details	Normal melting temperature [°C]
[1]	96.0

CCC(=O)[O-].C[N+](C)(C)CCO [cholinium propanoate]
Details	mass density, [1] [kg/m3]	refractive index, [2]	viscosity, [1] [mPa·s]
293.15 K	1074.6	1.4705	395.8
298.15 K	1071.5	1.4686	290.2
303.15 K	1068.6	1.4668	215.6
308.15 K	1065.7	1.465	163.2
313.15 K	1062.8	1.4631	125.8
318.15 K	1060	1.4611	98.5
323.15 K	1057.2	1.4592	78.3
328.15 K	1054.3	1.4573	63
333.15 K	1051.4	1.4555	51.4
338.15 K	1048.6	–	42.4
343.15 K	1045.8	–	35.4
348.15 K	1042.9	–	29.8
353.15 K	1040.1	–	25.4

— the NIST ThermoML archive (doi:10.1021/je300086w)
